Results on 25 compounds are retold here after publication PMC8119466, “A screen of FDA-approved drugs identifies inhibitors of protein tyrosine phosphatase 4A3 (PTP4A3 or PRL-3)” (Scientific Reports, 2021).

Structures are written as SMILES. Structures can show the parent of a compound that is named as a salt. Where two headings read alike, the source gives them in different places.

Assay type in all cases: biochemical
For one assay, the target named is T1, recombinant PRL-2 (Homo sapiens, UniProt Q12974).
T1 construct: 6xHis (N, cleaved yes); made in house; host or cells: E. coli One Shot BL21 Star
T1 sequence (Q12974 1-167): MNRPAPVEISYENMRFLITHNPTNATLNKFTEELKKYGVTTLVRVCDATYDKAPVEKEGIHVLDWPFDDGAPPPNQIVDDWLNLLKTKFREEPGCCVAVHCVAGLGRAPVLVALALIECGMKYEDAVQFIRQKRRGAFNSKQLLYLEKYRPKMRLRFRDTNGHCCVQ
Put plainly: In vitro phosphatase assay (DiFMUP hydrolysis), PRL-2.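 Further: PRL-2 activity read as DiFMUP hydrolysis after 20 min at room temperature with drug, enzyme first pre-reduced at 4 °C for 20 min.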

A further assay concerns the target T2, recombinant PRL-3 (Homo sapiens, UniProt O75365).
T2 construct: 6xHis (N, cleaved yes); made in house; host or cells: E. coli One Shot BL21 Star
Put plainly: In vitro phosphatase assay (DiFMUP hydrolysis), PRL-3. Further: test concentration or dose not given here.

The next assay concerns the target T3, recombinant PRL-1 (Homo sapiens, UniProt Q93096).
T3 construct: 6xHis (N, cleaved yes); made in house; host or cells: E. coli One Shot BL21 Star
T3 sequence (Q93096 1-173): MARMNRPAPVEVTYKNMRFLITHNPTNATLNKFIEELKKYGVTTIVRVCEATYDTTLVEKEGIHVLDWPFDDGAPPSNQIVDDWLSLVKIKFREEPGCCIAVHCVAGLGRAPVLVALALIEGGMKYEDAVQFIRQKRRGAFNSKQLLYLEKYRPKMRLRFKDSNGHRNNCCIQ
As to the kind of experiment: In vitro phosphatase assay (DiFMUP hydrolysis), PRL-1. Further: test concentration or dose not given here.

The mark [1] stands for this setting: FDA-approved drug screen, compared to DMSO.

T2 sequence (O75365 whole entry): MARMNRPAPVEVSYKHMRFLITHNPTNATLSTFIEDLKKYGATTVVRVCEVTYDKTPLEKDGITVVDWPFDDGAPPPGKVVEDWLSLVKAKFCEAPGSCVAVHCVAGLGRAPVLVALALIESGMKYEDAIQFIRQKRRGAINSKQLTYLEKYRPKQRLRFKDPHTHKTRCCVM

`CCOC(=O)C1=C[C@@H](OC(CC)CC)[C@H](NC(C)=O)[C@@H](N)C1` [Oseltamivir Phosphate]: at recombinant PRL-2 (setting [1]), the “% Phosphatase Activity (compared to DMSO) PRL-2” value came to 102%. Further, the “% Phosphatase Activity (compared to DMSO) PRL-3” value at recombinant PRL-3 (setting [1]) was 94%. Moreover, at recombinant PRL-1 (setting [1]), the “% Phosphatase Activity (compared to DMSO) PRL-1” value turned out to be 91%.
For the compound `OCCOc1ccc(/C(=C(/CCCl)c2ccccc2)c2ccccc2)cc1` [Ospemifene], the “% Phosphatase Activity (compared to DMSO) PRL-2” value on recombinant PRL-2 is 109%. Further, the “% Phosphatase Activity (compared to DMSO) PRL-3” value on recombinant PRL-3 came to 81%. For the same compound, at recombinant PRL-1, the “% Phosphatase Activity (compared to DMSO) PRL-1” value is 96%.
Consider `CCNC1(C(N)=O)CCN(c2ncnc3c2nc(-c2ccccc2Cl)n3-c2ccc(Cl)cc2)CC1.Cl` [Otenabant (CP-945598) HCl], for which the “% Phosphatase Activity (compared to DMSO) PRL-2” value on recombinant PRL-2 (setting [1]) was found to be 78%. Also, the “% Phosphatase Activity (compared to DMSO) PRL-3” value at recombinant PRL-3 (setting [1]) came to 97%. The “% Phosphatase Activity (compared to DMSO) PRL-1” value on recombinant PRL-1 (setting [1]) is recorded as 96%.
The matching figures for `CCCCCCCCOc1ccccc1C(=O)Nc1ccc(C(=O)OCC[N+](C)(CC)CC)cc1` [Otilonium Bromide]: 105%, 111% and 102%.
With `Cc1onc(-c2ccccc2)c1C(=O)N[C@@H]1C(=O)N2[C@@H]1SC(C)(C)[C@@H]2C(=O)[O-].O.[Na+]` [Oxacillin sodium monohydrate], the “% Phosphatase Activity (compared to DMSO) PRL-2” value on recombinant PRL-2 (setting [1]) stood at 90%. Besides, the “% Phosphatase Activity (compared to DMSO) PRL-3” value at recombinant PRL-3 (setting [1]) amounted to 83%. Further, the “% Phosphatase Activity (compared to DMSO) PRL-1” value at recombinant PRL-1 (setting [1]) was determined as 98%.
Regarding `O=C(O)C(=O)O.[NH-][C@@H]1CCCC[C@H]1[NH-].[Pt+2]` [Oxaliplatin], the “% Phosphatase Activity (compared to DMSO) PRL-2” value at recombinant PRL-2 (setting [1]) came to 97%. For the same compound, the “% Phosphatase Activity (compared to DMSO) PRL-3” value on recombinant PRL-3 (setting [1]) was determined as 76%. Also, the “% Phosphatase Activity (compared to DMSO) PRL-1” value at recombinant PRL-1 (setting [1]) turned out to be 92%.
Regarding `O=C(O)CCc1nc(-c2ccccc2)c(-c2ccccc2)o1` [Oxaprozin], the “% Phosphatase Activity (compared to DMSO) PRL-2” value on recombinant PRL-2 (setting [1]) is given as 106%. Further, the “% Phosphatase Activity (compared to DMSO) PRL-3” value at recombinant PRL-3 (setting [1]) turned out to be 71%. For the same compound, the “% Phosphatase Activity (compared to DMSO) PRL-1” value at recombinant PRL-1 (setting [1]) was 96%.
The matching figures for `NC(=O)N1c2ccccc2CC(=O)c2ccccc21` [Oxcarbazepine]: 112%, 89% and 104%.
Regarding `CCN(CC)CCOCCOC(=O)C(CC)(CC)c1ccccc1.O=C(O)CC(O)(CC(=O)O)C(=O)O` [Oxeladin Citrate], at recombinant PRL-2 (setting [1]), the “% Phosphatase Activity (compared to DMSO) PRL-2” value is 88%. Besides, the “% Phosphatase Activity (compared to DMSO) PRL-3” value on recombinant PRL-3 (setting [1]) worked out at 89%. Moreover, at recombinant PRL-1 (setting [1]), the “% Phosphatase Activity (compared to DMSO) PRL-1” value was 90%.
The like results for `COC(=O)Nc1nc2ccc([S+]([O-])c3ccccc3)cc2[nH]1` (stereo not drawn) [Oxfendazole] were, in that order, 102%, 92% and 84%.
For the compound `NC(=O)CN1CC(O)CC1=O` (stereo not drawn) [Oxiracetam], the “% Phosphatase Activity (compared to DMSO) PRL-2” value at recombinant PRL-2 (setting [1]) turned out to be 122%. Moreover, the “% Phosphatase Activity (compared to DMSO) PRL-3” value at recombinant PRL-3 (setting [1]) came to 71%. For the same compound, at recombinant PRL-1 (setting [1]), the “% Phosphatase Activity (compared to DMSO) PRL-1” value was determined as 94%.
As to `COc1ccc(C(=O)c2ccccc2)c(O)c1` [Oxybenzone], at recombinant PRL-2 (setting [1]), the “% Phosphatase Activity (compared to DMSO) PRL-2” value worked out at 81%. Further, the “% Phosphatase Activity (compared to DMSO) PRL-3” value at recombinant PRL-3 (setting [1]) is on record as 93%. Further, the “% Phosphatase Activity (compared to DMSO) PRL-1” value on recombinant PRL-1 (setting [1]) is on record as 99%.
As for `CCCCOc1cc(C(=O)OCCN(CC)CC)ccc1N` [Oxybuprocaine HCl], the “% Phosphatase Activity (compared to DMSO) PRL-2” value on recombinant PRL-2 (setting [1]) is recorded as 103%. For the same compound, at recombinant PRL-3 (setting [1]), the “% Phosphatase Activity (compared to DMSO) PRL-3” value stood at 93%. Also, the “% Phosphatase Activity (compared to DMSO) PRL-1” value at recombinant PRL-1 (setting [1]) came out at 97%.
As to `CCN(CC)CC#CCOC(=O)C(O)(c1ccccc1)C1CCCCC1` (stereo not drawn) [Oxybutynin chloride], the “% Phosphatase Activity (compared to DMSO) PRL-2” value at recombinant PRL-2 (setting [1]) was 85%. The “% Phosphatase Activity (compared to DMSO) PRL-3” value on recombinant PRL-3 (setting [1]) is given as 75%. In addition, on recombinant PRL-1 (setting [1]), the “% Phosphatase Activity (compared to DMSO) PRL-1” value is listed as 88%.
As for `CCN(CC)CC#CCOC(=O)C(O)(c1ccccc1)C1CCCCC1` (stereo not drawn) [Oxybutynin], the “% Phosphatase Activity (compared to DMSO) PRL-2” value at recombinant PRL-2 (setting [1]) is 99%. For the same compound, at recombinant PRL-3 (setting [1]), the “% Phosphatase Activity (compared to DMSO) PRL-3” value is reported as 118%. For the same compound, the “% Phosphatase Activity (compared to DMSO) PRL-1” value on recombinant PRL-1 (setting [1]) is listed as 91%.
As to `Cc1cc(C(C)(C)C)c(O)c(C)c1CC1=NCCN1` [Oxymetazoline hydrochloride], the “% Phosphatase Activity (compared to DMSO) PRL-2” value on recombinant PRL-2 (setting [1]) is 118%. Further, the “% Phosphatase Activity (compared to DMSO) PRL-3” value on recombinant PRL-3 (setting [1]) worked out at 82%. Besides, the “% Phosphatase Activity (compared to DMSO) PRL-1” value at recombinant PRL-1 (setting [1]) is recorded as 99%.
The like results for `CN(C)[C@@H]1C(=O)C(C(N)=O)=C(O)[C@@]2(O)C(=O)C3=C(O)c4c(O)cccc4[C@@](C)(O)[C@H]3[C@H](O)[C@@H]12` [Oxytetracycline (Terramycin)] were, in that order, 73%, 74% and 58%.
`CN(C)[C@@H]1C(O)=C(C(N)=O)C(=O)[C@@]2(O)C(O)=C3C(=O)c4c(O)cccc4[C@@](C)(O)[C@H]3[C@H](O)[C@@H]12` [Oxytetracycline Dihydrate]: the “% Phosphatase Activity (compared to DMSO) PRL-2” value on recombinant PRL-2 (setting [1]) is on record as 101%. Moreover, the “% Phosphatase Activity (compared to DMSO) PRL-3” value on recombinant PRL-3 (setting [1]) was found to be 98%. Besides, on recombinant PRL-1 (setting [1]), the “% Phosphatase Activity (compared to DMSO) PRL-1” value turned out to be 98%.
`O=C(O)/C=C/c1ccc(Cn2ccnc2)cc1` [Ozagrel]: the “% Phosphatase Activity (compared to DMSO) PRL-2” value at recombinant PRL-2 (setting [1]) came to 101%. The “% Phosphatase Activity (compared to DMSO) PRL-3” value on recombinant PRL-3 (setting [1]) is recorded as 76%. At recombinant PRL-1 (setting [1]), the “% Phosphatase Activity (compared to DMSO) PRL-1” value is listed as 96%.
Turning to `CC(C)Oc1ccc(-c2nc(-c3cccc4c3CC[C@@H]4NCCO)no2)cc1C#N` [Ozanimod (RPC1063)], on recombinant PRL-2 (setting [1]), the “% Phosphatase Activity (compared to DMSO) PRL-2” value stood at 101%. Besides, the “% Phosphatase Activity (compared to DMSO) PRL-3” value on recombinant PRL-3 (setting [1]) is on record as 88%. The “% Phosphatase Activity (compared to DMSO) PRL-1” value at recombinant PRL-1 (setting [1]) came to 95%.
As for `CN(C)Cc1c(C(=O)NCCOc2ccc(C(=O)NO)cc2)oc2ccccc12` [PCI-24781 (Abexinostat)], at recombinant PRL-2 (setting [1]), the “% Phosphatase Activity (compared to DMSO) PRL-2” value was found to be 96%. Moreover, the “% Phosphatase Activity (compared to DMSO) PRL-3” value at recombinant PRL-3 (setting [1]) is given as 86%. The “% Phosphatase Activity (compared to DMSO) PRL-1” value at recombinant PRL-1 (setting [1]) is on record as 100%.
As to `CC(=O)O[C@H]1C(=O)[C@@]2(C)[C@H]([C@H](OC(=O)c3ccccc3)[C@]3(O)C[C@H](OC(=O)[C@H](O)[C@@H](NC(=O)c4ccccc4)c4ccccc4)C(C)=C1C3(C)C)[C@]1(OC(C)=O)CO[C@@H]1C[C@@H]2O` [Paclitaxel], on recombinant PRL-2 (setting [1]), the “% Phosphatase Activity (compared to DMSO) PRL-2” value turned out to be 97%. Besides, the “% Phosphatase Activity (compared to DMSO) PRL-3” value on recombinant PRL-3 (setting [1]) amounted to 76%. Further, the “% Phosphatase Activity (compared to DMSO) PRL-1” value at recombinant PRL-1 (setting [1]) was determined as 94%.
As to `C1=N/C2=N/c3ccc(OCCN4CCCC4)c(c3)COC/C=C/COCc3cccc(c3)C(=C1)N2` [Pacritinib (SB1518)], the “% Phosphatase Activity (compared to DMSO) PRL-2” value on recombinant PRL-2 (setting [1]) is recorded as 98%. Besides, the “% Phosphatase Activity (compared to DMSO) PRL-3” value on recombinant PRL-3 (setting [1]) amounted to 78%. Moreover, the “% Phosphatase Activity (compared to DMSO) PRL-1” value on recombinant PRL-1 (setting [1]) is 95%.
The like results for `CC(=O)c1c(C)c2cnc(Nc3ccc(N4CCNCC4)cn3)nc2n(C2CCCC2)c1=O.O=S(=O)(O)CCO` [Palbociclib (PD0332991) Isethionate] were, in that order, 61%, 100% and 75%.
The matching figures for `CC(=O)c1c(C)c2cnc(Nc3ccc(N4CCNCC4)cn3)nc2n(C2CCCC2)c1=O.Cl` [Palbociclib (PD-0332991) HCl]: 61%, 102% and 68%.
